We go through 15 molecules from patent US8816052B2, “Mutant apoprotein of photoprotein with low calcium sensitivity” (JNC Corporation, priority 2011, dated 2014).

Holding throughout (format): biochemical
Series [1] addresses T1, Mutant Aequorin AM20 (Aequorea victoria, UniProt P02592, H34Q/K37A/N33D/S39T/V32K).
T1 construct: OmpA secretory signal peptide (N); histidine tag (N); made in house; host or cells: Escherichia coli strain WA802
As to conditions: for Half Decay Time / Luminescence Intensity for 60 Secs / Relative Luminescence Intensity: Mutant Aequorin AM20; for Luminescence Intensity for 60 Secs / Relative Luminescence Intensity: CTZ = 100; for Relative Luminescence Intensity: 50 mM calcium solution; for half decay time of the luminescence of the semi-synthetic aequorin: analogue as light-emitting substrate, statement in words. Here is the method:
(§1) AM20 was prepared to examine the properties. Specifically, 1 ml of 30 mM Tris-HCl (pH 7.6) containing 10 mM EDTA was mixed with 2-mercaptoethanol (1 μl) and a solution of the coelenterazine analogue (1 μg/μl) dissolved in ethanol. Then, 10 μl of the purified apoaequorin or recombinant mutant apoaequorin AM20 was added to the mixture, which was allowed to stand on ice (4° C.) for 5 hours to perform the regeneration reaction. […] The half decay time was determined from the luminescence patterns.

For series [2], the target named is T2, Native Aequorin (Aequorea victoria, UniProt P02592).
T2 construct: His tag (from the vector name piP-His-HE); made in house
T2 sequence (P02592 9-196 limits assumed): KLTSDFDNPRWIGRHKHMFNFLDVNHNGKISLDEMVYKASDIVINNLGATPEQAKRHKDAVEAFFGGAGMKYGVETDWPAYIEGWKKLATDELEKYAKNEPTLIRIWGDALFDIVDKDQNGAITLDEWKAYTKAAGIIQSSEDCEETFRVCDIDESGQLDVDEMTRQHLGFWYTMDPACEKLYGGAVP
The series is described as follows: Substrate specificity: semi-synthetic aequorin from coelenterazine analogue and purified apoaequorin. As to conditions: for Luminescence Intensity for 60 Secs: CTZ = 100; for Relative Luminescence Intensity: CTZ = 100, 50 mM calcium solution. Here is the method:
as §1

A short description of series [3]: Luminescence activity and half decay time of mutant aequorins regenerated from E. coli extracts. The settings on record: E. coli JM83 extract regenerated with coelenterazine, final calcium 25 mM. Here is the method:
To express in Escherichia coli the mutant apoaequorin expression vector having the replaced other EF hand loop sequence which was constructed in (2) above, the mutant apoaequorin expression vector was transfected to Escherichia coli JM83 in a conventional manner. The transformants obtained were inoculated into 10 ml of LB liquid medium (10 g of bacto-tryptone, 5 g of yeast extract and 5 g of sodium chloride, per liter of water, pH 7.2) containing ampicillin (50 μg/ml) and cultured at 37° C. for 18 hours. […] Subsequently, 2-mercaptoethanol (1 μl) (manufactured by Wako Pure Chemical Industry) and a solution of substrate coelenterazine in ethanol (1 μg/μl) (JNC Corporation, hereinafter the same) were mixed with the recombinant mutant apoaequorin extract. The mixture was allowed to stand on ice (4° C.) for 18 hours thereby to regenerate into the mutant aequorin. […] The final calcium level in the reaction solution was 25 mM. The luminescence activity was expressed by relative activity (%) to the maximum intensity (Imax).

T1 sequence (P02592 9-196 V32K/N33D/H34Q/K37A/S39T): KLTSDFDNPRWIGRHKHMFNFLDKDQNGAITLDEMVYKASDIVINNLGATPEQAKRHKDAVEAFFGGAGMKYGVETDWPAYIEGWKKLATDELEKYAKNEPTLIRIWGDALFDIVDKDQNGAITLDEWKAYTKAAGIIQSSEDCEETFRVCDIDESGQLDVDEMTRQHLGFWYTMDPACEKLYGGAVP

On to `O=c1c(Cc2cccc(O)c2)nc2c(Cc3ccccc3)[nH]c(-c3ccc(O)cc3)cn1-2` [3iso-CTZ, 3iso-coelenterazine], for which, in series [1], the “Half Decay Time” value amounted to 0.66 s, the “Luminescence Intensity for 60 Secs” value is 9.2% and the “Relative Luminescence Intensity” value is listed as 224%. Moreover, in series [2], the “Half Decay Time” value is 0.24 s, the “Luminescence Intensity for 60 Secs” value amounted to 13.4% and the “Relative Luminescence Intensity” value is reported as 51.6%.
In the case of `Cc1cccc(Cc2nc3c(Cc4ccccc4)[nH]c(-c4ccc(O)cc4)cn-3c2=O)c1` [3me-CTZ, 3me-coelenterazine], in series [1], the “Half Decay Time” value was found to be 3.69 s, the “Luminescence Intensity for 60 Secs” value amounted to 35.5% and the “Relative Luminescence Intensity” value is recorded as 125%. In series [2], the “Half Decay Time” value is 0.51 s, the “Luminescence Intensity for 60 Secs” value is 21.2% and the “Relative Luminescence Intensity” value came out at 35.0%.
Regarding `COc1cccc(Cc2nc3c(Cc4ccccc4)[nH]c(-c4ccc(O)cc4)cn-3c2=O)c1` [3meo-CTZ, 3meo-coelenterazine], in series [1], the “Half Decay Time” value came to 1.43 s, the “Luminescence Intensity for 60 Secs” value is 25.0% and the “Relative Luminescence Intensity” value stood at 266%. In series [2], the “Half Decay Time” value amounted to 0.52 s, the “Luminescence Intensity for 60 Secs” value is 35.6% and the “Relative Luminescence Intensity” value is given as 64.9%.
On to `Oc1ccc(Cc2nc3c(Cc4ccccc4)nc(-c4ccc(O)cc4)cn3c2O)cc1` [CTZ, coelenterazine], for which, in series [1], the “Half Decay Time” value is 14.12 s, the “Luminescence Intensity for 60 Secs” value was 100% and the “Relative Luminescence Intensity” value is reported as 100%. Moreover, in series [2], the “Half Decay Time” value amounted to 0.81 s, the “Luminescence Intensity for 60 Secs” value is reported as 100% and the “Relative Luminescence Intensity” value amounted to 100%.
Regarding `O=c1c(Cc2ccc(C(F)(F)F)cc2)nc2c(Cc3ccccc3)[nH]c(-c3ccc(O)cc3)cn1-2` [cf3-CTZ, cf3-coelenterazine], in series [1], the “Half Decay Time” value is over 60 s, the “Luminescence Intensity for 60 Secs” value turned out to be 18.6%, the “Relative Luminescence Intensity” value is 7.5% and the “half decay time of the luminescence of the semi-synthetic aequorin” value is recorded as “extremely prolonged”. In series [2], the “Half Decay Time” value was found to be 5.95 s, the “Luminescence Intensity for 60 Secs” value is on record as 48.6% and the “Relative Luminescence Intensity” value is 6.3%.
Consider `Oc1ccc(-c2cn3c(O)c(Cc4ccccc4)nc3c(Cc3ccccc3)n2)cc1` [h-CTZ, h-coelenterazine], for which, in series [1], the “Half Decay Time” value was 2.98 s, the “Luminescence Intensity for 60 Secs” value worked out at 45.4% and the “Relative Luminescence Intensity” value amounted to 220%. Also, in series [2], the “Half Decay Time” value worked out at 0.69 s, the “Luminescence Intensity for 60 Secs” value was 70.1% and the “Relative Luminescence Intensity” value is 87.9%.
As for `O=c1c(Cc2ccccc2)nc2c(CC3CCCC3)[nH]c(-c3ccc(O)cc3)cn1-2` [hcp-CTZ, hcp-coelenterazine], in series [1], the “Half Decay Time” value was determined as 0.61 s, the “Luminescence Intensity for 60 Secs” value was 7.6% and the “Relative Luminescence Intensity” value stood at 187%. Besides, in series [2], the “Half Decay Time” value was found to be 0.51 s, the “Luminescence Intensity for 60 Secs” value came to 14.3% and the “Relative Luminescence Intensity” value stood at 20.5%.
Turning to `Cc1ccc(Cc2nc3c(Cc4ccccc4)[nH]c(-c4ccc(O)cc4)cn-3c2=O)cc1` [me-CTZ, me-coelenterazine], in series [1], the “Half Decay Time” value is over 60 s, the “Luminescence Intensity for 60 Secs” value is listed as 15.4%, the “Relative Luminescence Intensity” value is reported as 6.8% and the “half decay time of the luminescence of the semi-synthetic aequorin” value is “extremely prolonged”. Further, in series [2], the “Half Decay Time” value stood at 5.00 s, the “Luminescence Intensity for 60 Secs” value was 45.0% and the “Relative Luminescence Intensity” value is 5.8%.
Take `COc1ccc(Cc2nc3c(Cc4ccccc4)[nH]c(-c4ccc(O)cc4)cn-3c2=O)cc1` [meo-CTZ, meo-coelenterazine]: in series [1], the “Half Decay Time” value is 18.35 s, the “Luminescence Intensity for 60 Secs” value is listed as 35.6%, the “Relative Luminescence Intensity” value is 26.6% and the “half decay time of the luminescence of the semi-synthetic aequorin” value was “extremely prolonged”. Besides, in series [2], the “Half Decay Time” value amounted to 1.63 s, the “Luminescence Intensity for 60 Secs” value is 60.1% and the “Relative Luminescence Intensity” value is 22.3%.
Consider Bis-coelenterazine [Bis-CTZ], for which, in series [1], the “Luminescence Intensity for 60 Secs” value came to 0.0% and the “Relative Luminescence Intensity” value is reported as 0.0%. In series [2], the “Luminescence Intensity for 60 Secs” value is recorded as 0.0% and the “Relative Luminescence Intensity” value turned out to be 0.0%.
For ameh-coelenterazine [αmeh-CTZ], in series [1], the “Half Decay Time” value came to 0.61 s, the “Luminescence Intensity for 60 Secs” value worked out at 0.9% and the “Relative Luminescence Intensity” value is listed as 19.4%. In series [2], the “Half Decay Time” value was determined as 0.35 s, the “Luminescence Intensity for 60 Secs” value is 0.9% and the “Relative Luminescence Intensity” value turned out to be 2.2%.
Consider et-coelenterazine [et-CTZ], for which, in series [1], the “Half Decay Time” value was determined as 1.94 s, the “Luminescence Intensity for 60 Secs” value is listed as 33.6% and the “Relative Luminescence Intensity” value came out at 56.7%. Besides, in series [2], the “Half Decay Time” value was 1.21 s, the “Luminescence Intensity for 60 Secs” value is on record as 44.1% and the “Relative Luminescence Intensity” value is on record as 27.3%.
Consider i-coelenterazine [i-CTZ], for which, in series [1], the “Half Decay Time” value is over 60 s, the “Luminescence Intensity for 60 Secs” value came to 9.8%, the “Relative Luminescence Intensity” value stood at 3.6% and the “half decay time of the luminescence of the semi-synthetic aequorin” value is recorded as “extremely prolonged”. In series [2], the “Half Decay Time” value amounted to 11.42 s, the “Luminescence Intensity for 60 Secs” value stood at 65.3% and the “Relative Luminescence Intensity” value was determined as 5.0%.
With n-coelenterazine [n-CTZ], in series [1], the “Half Decay Time” value is 44.04 s, the “Luminescence Intensity for 60 Secs” value turned out to be 1.9%, the “Relative Luminescence Intensity” value was 1.0% and the “half decay time of the luminescence of the semi-synthetic aequorin” value is recorded as “extremely prolonged”. Besides, in series [2], the “Half Decay Time” value was 4.71 s, the “Luminescence Intensity for 60 Secs” value is listed as 24.0% and the “Relative Luminescence Intensity” value is recorded as 3.6%.

B1: pAM2 + X: aequorin expressed with vector pAM2+X; EF hand loop [I] DVNHNGKISLDE (SEQ ID NO: 13); native aequorin reference (protein)
chain: MTMITPSCKLTSDFDNPRWIGRHKHMFNFLDVNHNGKISLDEMVYKASDIVINNLGATPEQAKRHKDAVEAFFGGAGMKYGVETDWPAYIEGWKKLATDELEKYAKNEPTLIRIWGDALFDIVDKDQNGAITLDEWKAYTKAAGIIQSSEDCEETFRVCDIDESGQLDVDEMTRQHLGFWYTMDPACEKLYGGAVP
Consider B1, for which, in series [3] (50 mM calcium solution added, measured 30 seconds, relative to maximum intensity (Imax)), the “Relative Luminescence Activity” value is on record as 100.0%. Further, the “Half Decay Time” value in series [3] (time until luminescence reaches half of maximum intensity) turned out to be 1.3 s.
